Entries after “also recorded” stand apart in the source; their conditions may differ.
How the values were obtained:
[1] = system: frataxin deficient fibroblasts (GM03665) from Friedreich's ataxia patient; test: Frataxin Deficient Fibroblast Viability Assay (BSO Assay); assay type: cell-based; settings: for EC50: Homo sapiens, Fibroblast, FA patient fibroblasts pretreated with compound, BSO 10 mM, MTT after 48 hrs
Experimental: Example 12: Frataxin Deficient Fibroblast Viability Assay (the “BSO Assay”)
This Example was used to evaluate the various new compositions for their potential efficacy in the treatment of Friedreich's Ataxia (FA or FRDA)—substantially as described in the above cited Reference (Matthias et al.).
The stock solutions of the test articles (and control compounds) were prepared in dimethyl sulfoxide (DMSO at 10 mM), Working stock solutions (2 times concentrated) were prepared on the day of the experiment in respective cell culture medium to be used for assay (detailed medium description below). A listing of compounds used as test articles in this Example 12 are found in Table 1, below.
A patient derived frataxin deficient fibroblast cell line was obtained from Coriell Institute. More specifically, the following cell lines/DNA samples were obtained from the NIGMS Human Genetic Cell Repository at the Coriell Institute for Medical Research: GM03665. To evaluate importance of various growth conditions on cell susceptibility to BSO toxicity cells were grown on:
MEM (Sigma-Aldrich) 15% Fetal Bovine Serum (FBS) without growth factors;
MEM (Sigma-Aldrich) 15% FBS with growth factors (Catalogue number 100-18B, Recombinant Human FGF-basic (154 a.a.) and catalogue number AF-100-15, Animal-Free Recombinant Human EGF from Peprotech);
MEM199/MEM EBS (Bioconcept Ltd.) 10% FBS, insulin 10 μg/ml, L-glutamine 2 mM with growth factors (Catalogue number 100-18B, Recombinant Human FGF-basic (154 a.a.) and catalogue number AF-100-15, Animal-Free Recombinant Human EGF from Peprotech).
To conduct an experiment, fibroblast cells (from all growth conditions) were seeded (100 μL (cells 3×10^3/well) on 96-well plates in MEM199/MEM EBS medium 10% FBS, insulin 10 μg/mL, L-glutamine 2 mM with growth factors and allowed to grow on plate for 24 hrs. After 24 hrs., media was removed and then test compounds of interest were added (100 μL, 2 times concentrated stock) to 96-well plates (end DM80 concentration not exceeding 0.5%) and incubated for 24 hours. Then L-buthionine-sulfoximine (BSO, from Acros Organics, Cat. No. 235520010) was added (100 μL, 2 times concentrated stock) at end concentrations ranging from 1 to 10 mM. Both test compounds and BSO were dissolved in MEM199/MEM EBS medium 10% FBS, insulin 10 μg/mL, L-glutamine 2 mM with growth factors. Cell viability was monitored and either after 24- or 48-hours cell viability was assayed by MTT (Thiazolyl blue tetrazolium bromide) assay. For the MTT assay, media was removed and 100 μL of MTT 1 mg/mL was added, incubated for 2 hours at +37° C., then medium was removed and 100 μL of isopropanol added to dissolve sediment. Absorption was measured at 570 (OD570) and 650 (QD650) nm wavelengths. Control cells (vehicle instead of BSO and compound) and vehicle control (with BSO, but vehicle instead of test compound) were treated in the same manner as ceils with BSO and compound. All cell media contained penicillin and streptomycin 100 U/mL each.
Absorption readouts were processed as follows: ValueΔ=ValueOD570−ValueOD650 and the obtained values were used to calculate cell viability as % of control cell (i.e., no BSO, no compound, just vehicle) viability.
Except as otherwise indicated in Table 1, all samples were run in at least 3 replicates for test compounds and at least 8 replicates for controls (i.e., both control (no BSO, no compound) and vehicle control (i.e., with BSO, no compound). Exact N per data points are indicated in the figures/table legends. Results for the compounds (test articles and controls) tested are listed in Table 1, below.
This is a cell-based assay measuring cytotoxicity which results from oxidative stress subsequent to depletion of endogenous glutathione defense mechanisms. The cells were primary Friedreich Ataxia (FA) patient fibroblasts which were incubated for 48 hrs. in BSO, an inhibitor of gamma glutamyl synthetase, an enzyme required for glutathione production. […]

HepG2 cells = test: Rotenone Oxygraph Assay (high-resolution respirometry of intact HepG2 cells); assay type: cell-based, human
Experimental: Example 15: Rotenone Oxygraph Assay (High-Resolution Respirometry of Intact HepG2 Cells)
The Oxygraph-2k (O2k, OROBOROS INSTRUMENTS, Austria) was used for measurements of respiration of intact cells. The respirometry was performed in Dulbecco's Modified Eagle Medium (DMEM) high glucose without supplements. All experiments were performed at 37° C.
HepG2 cells (ATCC collection code HB-8065™) were cultured in 10 cm^2 culture dishes in DMEM high glucose medium supplemented with 10% fetal bovine serum (FBS) and 100 units/mL penicillin and 100 μg/mL streptomycin until approximately 90% confluence was reached. Immediately prior to performing the respirometric assay, the cells were washed with media without FBS, trypsinized and resuspended in DMEM high glucose without FBS.
The final concentration of intact cells in the O2k-chamber was 0.5-10^6/mL. After stabilization of respiration, the Complex I inhibitor, rotenone, at 1 μM final concentration was added to inhibit electron flux via Complex I. Then, compound to be tested was added at 10 μM final concentration, and the change in respiration rate of intact cells was monitored. […]

[2] = system: HepG2 human hepatocarcinoma cells; test: Rotenone ATP Assay (Complex I by-pass assay); assay type: cell-based
Experimental: Example 13: Rotenone ATP Assay (a Complex I by-Pass Assay)
This assay has been adapted from Haefeli R H, Erb M, Gemperli A C, Robay D, Courdier Fruh I, et al. (2011) NQO1-Dependent Redox Cycling of Idebenone: Effects on Cellular Redox Potential and Energy Levels. PLoS ONE 6(3): e17963. HepG2 human hepatocarcinoma cells are co-incubated with the electron transport chain complex I toxin rotenone +/− compounds of interest and the corresponding effect on ATP synthesis is measured with a bioluminescent substrate.
The stock solutions of the test articles (See Table 1, below for a list of the test articles examined using this assay) were prepared in dimethyl sulfoxide (DMSO at 10 mM). Working stock solutions were prepared on the day of the experiment in glucose free, serum free Dulbecco's modified Eagles medium (DMEM) supplemented with 50 micromolar rotenone.
In brief, HepG2 cells were plated at 25,000 cells per well in low glucose (1 gram/Liter) DMEM medium+10% fetal calf serum and incubated for 24 hours. The following day, the media was decanted and subsequently replaced with glucose free/serum free DMEM which has been supplemented with 50 micromolar rotenone and compound of interest. Serial dilutions of compound were prepared in 3× dilutions beginning at 25 micromolar. The cells were incubated for 60 minutes in a humidified tissue culture incubator. Following incubation, ATP levels were quantified via bioluminescent assay (Promega […] Glo Assay kit) and readings were captured on a standard microplate reader.
ATP bioluminescence is plotted versus the log of compound of interest and data are used to generate EC50 values. Curve fitting is performed using a sigmoidal dose response curve fit function (GraphPad Prism software).
EC50 values were derived from seven-point dose response curves performed on n=3 technical replicates per dose. Robustness of curve fit was assessed as a quality control measure, with an R squared value of at least 0.80 being required for a successful curve fit. Compounds of interest showing an increase in ATP bioluminescence relative to vehicle control were verified in an independent biological replicate of n=3 technical replicates per dose.
This assay is a direct measure of the ability of compounds of interest to restore ATP production under conditions of inhibition of Complex I of the mitochondrial electron transport chain. As the majority of ATP produced via the electron transport chain is thought to derive from Complex I activity, significant impairment in Complex I function has dire biological consequences. Of note, Complex I mutations are thought to drive pathophysiology in multiple mitochondrial diseases, including Leigh syndrome and Leber's Hereditary Optic Neuropathy (LHON), while diminished Complex I activity and the resultant attenuation of ATP production has been shown in neurodegenerative diseases, including Friedreich's Ataxia, Parkinson's Disease and Huntington's Disease. In brief, most compounds were tested in the Rotenone Oxygraph Assay instead of this assay but only Idebenone was active amongst Omaveloxolone, Idebenone and Vatiquinone.

[3] = system: GM03665 cells (fibroblasts from a subject with Friedreich's ataxia); test: RSL-3 Toxicity Assay (RSL-3 Assay); assay type: cell-based, human
Source text: Example 14: RSL-3 Toxicity Assay (RSL-3 Assay)
This assay has been adapted from: Hinman, A., Holst, C. R., Latham, J. C., Bruegger, J. J., Ulas, G., McCusker, K. P., Amagata, A., Davis, D., Hoff, K. G., Kahn-Kirby, A. H., Kim, V., Kosaka, Y., Lee, E., Malone, S. A., Mei, J. J., Richards, S. J., Rivera, V., Miller, G., Trimmer, J. K., Shrader, W. D., “Vitamin E hydroquinone is an endogenous regulator of ferroptosis via redox control of 15-lipoxygenase”, (2018) PLoS ONE 13(8): e0201369.
In brief, GM03665 cells (Coriell Institute) were seeded in 96-well plates (Sarstedt) in DMEM cell culture media containing 10% Fetal Bovine serum and 1% Penicillin-Streptomycin (Pen-Strep) antibiotic mix at the amount of 2×10^4/mL (100 μL or 2×10^3 cells per well). Cells were left to rest overnight at 37° C. in a humidified atmosphere with 5% CO2 to allow attachment of the cells to the culture plate. Test compounds were prepared as DMSO stocks (10 mM) and were serially diluted in cell culture media to obtain 2× working solutions. Cell media was discarded and replaced by 50 μL of test compound solutions or cell media with vehicle for control wells. Within 15 minutes, 2× working solution (4 μM) of 1S,3R-RSL-3 (CAS #1219810-16-8, Sigma-Aldrich) (diluted from 5 mM DMSO stock in cell culture media) was added. Final reaction volume was 100 μL and final DMSO concentration in reaction was kept below 0.2% (v/v) and equal in all wells. Final RSL-3 concentration was 2 μM and test compound final concentrations in reaction were up to 1000 nM. After 24 hours of incubation cell viability was assessed by MTT test. MTT (Sigma-Aldrich) solution 1 mg/mL in IX PBS (pH=7.4) was prepared 1 hour before the assay and filtered through Filtropur S 0.2 filters (Sarstedt). Cell media with test compounds was discarded and 100 μL of MTT solution was added to cells. The plates were incubated for 2 hours at +37° C. Thereafter, the MTT solution was removed and 100 μL of isopropanol was added to dissolve sediment. Absorption at 570 and 650 nm was measured using Hidex Sense microplate reader.
Compounds A and B and idebenone were not examined in this assay. The data presented in Table 1 indicates omaveloxolone was not active in this assay but that vatiquinone was active.
Discussion—Both BSO and RSL-3 are frequently utilized to induce the regulated cell death pathway known as ferroptosis. Ferroptosis is thought to require the joint activity of iron catalyzed oxidative stress and lipid peroxidation and has been described in cell and animal models of multiple neurodegenerative diseases, including Friedreich's Ataxia, Huntington Disease, Parkinson Disease and Alzheimer's Disease. […] Of note, the results for Compounds C-I and K were favorable with respect to inhibition of ferroptotic cell death when either BSO or RSL3 were used as initiating stimulus, differentiating these compounds from omaveloxolone and idebenone.

Row | SMILES | protection against BSO induced cell death (in words) ([1]; BSO Assay, text statement) | EC50 [1] | Complex I by-pass activity in Rotenone Oxygraph Assay (in words) (HepG2 cells) | activation at 10 µM (HepG2 cells; Homo sapiens, intact HepG2 cells, rotenone 1 μM, compound 10 μM, increase in respiration rate) | Complex I by-pass activity in Rotenone ATP Assay (in words) [2] | EC50 ([2]; Homo sapiens, 1 h, HepG2, 50 micromolar rotenone, 60 minutes, ATP bioluminescence) | Rotenone Oxygraph Assay % Increase (HepG2 cells; intact HepG2 cells, rotenone 1 μM, compound 10 μM, increase in respiration rate) | protection against RSL-3 toxicity (in words) [3] | EC50 ([3]; Homo sapiens, Fibroblast, GM03665 cells, RSL-3 2 μM, 24 hours, MTT) | ATP Rotenone Assay EC50 ([2]; HepG2, 50 micromolar rotenone, 60 minutes, ATP bioluminescence)
1 | COC1=C(OC)C(=O)C(CCCCCCCCCCO)=C(C)C1=O [Idebenone, reference compound] | not really very protective at all; also recorded: only very weakly active | > 1000 nM | active | 70.2% | active | – | – | – | – | –
2 | COC1=C(OC)C(=O)C(C/C=C(\C)CC/C=C(\C)CCC=C(F)F)=C(C)C1=O [Compound B, 2-((2E,6E)-11,11-difluoro-3,7-dimethylundeca-2,6,10-trien-1-yl)-5,6-dimethoxy-3-methylcyclohexa-2,5-diene-1,4-dione] | – | 199 nM | – | – | comparable to that of Idebenone | 1020 nM | – | – | – | –
3 | CC(C)=CCC/C(C)=C/CC/C(C)=C/CC[C@@](C)(O)CCC1=C(C)C(=O)C(C)=C(C)C1=O [Vatiquinone, reference compound] | – | – | inactive | – | inactive | – | Inactive | active | 56 nM | Inactive

Reference: US12037350B2, “Compositions and methods for the prevention and/or treatment of mitochondrial disease, including Friedreich's ataxia” (Stealth BioTherapeutics Inc., priority 2020, dated 2024)
